# From patent publication US20070243548A1, “Calumenin-directed diagnostics and therapeutics for cancer and chemotherapeutic drug resistance” (priority 2006, published 2007)
# Tests used:
# Format in all cases: cell-based, human
# [1] = tested on: MCF-7 cells; assay: Apoptosis assay (Annexin V staining); conditions: FIG. 4
# Procedure: This assay was performed to determine the number of cells that were susceptible to chemotherapeutic drugs following incubation with siRNAs. Cells transfected with siRNA were seeded in Lab-Tek 16-well chamber slides (Electron Microscopy Sciences, Hatfield, Pa.) at 10^4 cells/well 48 hrs post-transfection. Apoptosis was determined 16 hours later by annexin-V staining using the Annexin-V FLUOS kit (Roche, Ltd., Basel, CH) following the manufacturer's instructions. Slides were observed under a fluorescence microscope and images were taken using an Olympus digital camera and the Q-Capture software (QImaging, Burnaby, BC, CA).
# [2] = tested on: MCF-7 cells; assay: cells
# Procedure: For a typical siRNA transfection, […] of the annealed siRNA duplex was mixed with 1.4 ml of Opti-MEM reagent (Invitrogen). In another tube, […] of Oligofectamine reagent (Invitrogen, Carlsbad, Calif.) was mixed with […] of Opti-MEM. The two solutions were combined and mixed gently by inversion and incubated for 20 min. at RT. The resulting solution was added to the cultured cells drop by drop in a 10 cm dish (cells are approximately 40-50% confluent). The next day the transfected cells were trypsinized and seeded in 6 or 96-well plates and further incubated for the indicated amount of time (assay dependent) before further analysis.
# Cell survival was determined using the MTT cytotoxicity assay (see, e.g., Tokuyama et al. (2005) Anticancer Res. 25(1A): 17-22). Small interfering RNA transfected cells were seeded in triplicate into 96-well plates at 5×10^3 cells/well 48 hrs post-transfection. The cells were incubated for an additional 16 to 24 hrs before they were exposed to increasing concentrations of cytotoxic drugs. Doxorubicin (adriamycin), cisplatin, taxol, vinblastine, vincristine, and mitoxantrone were all purchased from Sigma Corp. (St. Louis, Mo.). Stocks were made as follows: 6 mM for doxorubicin, 1.1 mM for vincristine and vinblastine; 1.1 mM for taxol, 50 mM for cisplatin both in DMSO; and 0.97 mM mitoxantrone in ethanol. Appropriate dilutions were made in the respective media for each cell line. Following addition of drugs, incubation was continued for an additional 72 hrs. […] of MTT dye (5 mg/ml) were added into each well and the plate was further incubated at 37° C. for 4 hrs. The dye was solubilized with 10% Triton X-100, 0.01 N HCl and further incubated at 37° C. in the dark for 30 min. Cell viability was determined by measure of absorption at 570 nm in a Wallac multiwell plate reader (PerkinElmer, Inc., Boston, Mass.). The averages of triplicate wells were plotted using the Prism software (GraphPad Software, Inc., San Diego, Calif.).
# [3] = tested on: MCF-7 cells; assay: Phase contrast viability assay (cell morphology); conditions: calumenin-depleted MCF-7 cells; FIG. 3
# [4] = tested on: calumenin; assay: Immunoblot of calumenin expression after siRNA transfection of MCF-7 cells; conditions: compared to mock and control siRNA, FIG. 2
# Source text: To establish the importance of calumenin to the expression of the drug-resistant phenotype in MCF-7 cell lines, calumenin expression was silenced using RNAi. Briefly, the following siRNA duplexes targeting the human calumenin mRNA were designed and purchased either from Ambion (Austin, Tex.) or Invitrogen (Carlsbad, Calif.). The siRNA duplex sequences corresponding to nucleotides […] (REFSEQ ID NUMBER: NM_001428) targeting the start of the calumenin mRNA transcript were:
# For a typical siRNA transfection, […] of the annealed siRNA duplex was mixed with 1.4 ml of Opti-MEM reagent (Invitrogen). In another tube, […] of Oligofectamine reagent (Invitrogen, Carlsbad, Calif.) was mixed with […] of Opti-MEM. The two solutions were combined and mixed gently by inversion and incubated for 20 min. at RT. […]
# To determine the ability of cells to proliferate after they were transfected with […] or control siRNAs as indicated above, the cells were seeded the next day in a 96-well plate at 5×10^3 cells/well in quadruplicate. […] The resulting fluorescence was measured in a Wallac microplate reader (PerkinElmer, Inc., Boston, Mass.) using a 535 nm filter. […] The number of cells was determined by extrapolation from a standard curve.
substance,measurement,setting,value
"Calumenin siRNA: siRNA duplex targeting human calumenin mRNA; sense 5′-GAAGGACCGUGUACAUCAU-3′ (SEQ ID NO: 1), anti-sense 5′-AUGAUGUACACGGUCCUUC-3′ (SEQ ID NO: 2), 3′TT overhangs (3' TT overhangs on both strands, further chemistry not given here)",number of Annexin-V-positive cells,[1]; compared to cell population treated with control siRNA,substantially greater number
same,cell survival,[1]; compared to cells treated with siGLO control siRNA,decreased
same,decrease in cell viability of MCF-7 cells,[2],48%
same,cell morphology,[3],more rounded cell morphology
same,calumenin expression,[4],significantly decreased
